Data reported in patent publication US20090305954A1, “HISTIDINE-CONTAINING DIASTEREOMERIC PEPTIDES AND USES THEREOF” (Yeda Research and Development Co. Ltd., priority 2005, published 2009).
Square brackets hold non-standard residues; d marks the D form. Peptide text beside a SMILES is read from it.

Key:
[1] = test system: PC3 human prostate cancer cell line; assay: XTT proliferation (cytotoxicity) assay, PC3; type: cell-based; settings: PC3, pH 7.4, 24 h
Procedure: The CL1 human prostate carcinoma (PC) cell line is an androgen-independent (AI) subclone of LNCaP cell line, which was generated by culturing androgen-dependent (AD) LNCaP cells in charcoal-stripped, […], as described (Patel et al. 2000). 22RV1 human PC cells are AI sub-clones of the AD prostatic adenocarcinoma CWR22 xenograft (Sramkoski et al. 1999). CL1 and 22RV1 (ATCC, USA) were grown in RPMI-1640 supplemented with 10% FCS (Biological Industries, Beit Haemek, Israel). PC3 and DU145 are androgen-insensitive (AI) (non-responsive), invasive human prostate cancer cell lines. NIH-3T3 mouse fibroblast cell lines (ATCC, USA) were grown in DMEM supplemented with 10% BS. Murine Lewis lung carcinoma (LLC) cell lines were also grown in DMEM medium supplemented with 10% fetal calf serum and antibiotics under the same conditions as above.
The anticancer activity of the diastereomers 1, 5 and 11-16, 36-39, 42 and 44 was examined against human CL1 prostate cancer, murine LLC (Lewis lung carcinoma), DU 145 and PC3 cell lines. The cell selectivity of the diastereomeric peptides was also studied by examining their effect on NIH-3T3 normal mouse fibroblasts cell line.
A 96-well plate (Falcon) was used for the XTT proliferation assay. Cancer cells were grown for 24 hours (day 1) in RPMI-1640 medium (5×10^3, 7×10^3, 1×10^4 and 7×10^3 cells/100 μl for LLC, CL1, 22RVI, DU 145 and PC3, respectively) supplemented with 10% fetal calf serum and antibiotics, at 37° C., in humidified atmosphere at 5% CO2 and 95% air, resulting in growth medium pH of 7.4. […]
In day 3, XTT reaction solution was prepared by adding to 100 μl aliquots of activation solution (sodium 3′-[1-(phenyl-aminocarbonyl)-3,4-tetrazolium]-bis(4-methoxy-6-nitro) benzene sulfonic acid hydrate and N-methyl dibenzopyrazine methyl sulfate; mixed in a proportion of 50:1) (protected from light and kept in −20° C.), the substrate. […] The optical density was read at wavelength of 450 nm in an ELISA plate reader. Cell viability was determined relative to the control and final results were recorded. […]

[2] = test system: AI CL1 human PC cells xenograft; assay: Inhibition of tumor growth in human prostate cancer xenografts, CL1; type: in vivo, nude male mice
Procedure: (i) Inhibition of tumor growth in human prostate cancer xenografts. Subcutaneouse (s.c.) implantation of human PC cells in mice was done as previously described in Gavish et al. (Gavish et al. 2002). Briefly, 0.1 ml AI CL1 or 22RV1 human PC cells (5×10^6 cells) in Matrigel were inoculated s.c. into the dorsal side of five to six week-old nude male mice weighing 20-25 g (Harlen Co., Israel). Two weeks after cell implantation, when the tumors diameter reached ≧5 mm (denoted as day 1), the diastereomer 13 and its all L-amino acid analog peptide (at 1 mg/kg, 0.1 mM), or vehicle (PBS, pH=7.4) were injected intratumorally (dosing volume of 2.5 ml/kg) three times a week for a total of 9 doses. Tumor size was measured by a caliper and recorded twice a week during a period of 28 days. Mice were weighed and tumor weight (mg) was estimated by using the formula of length×width×depth×0.52 in mm^3, assuming the specific gravity to be 1. At the end of the treatment, the mice were killed, and the tumors were removed, photographed, and weighed. The animal experimentation was conducted according to the rules of the Institutional Animal Care and Use Committee.

[3] = Interaction with Matrigel matrix, analysed by RP-HPLC and mass spectroscopy; type: in vitro ADME; settings: mixed with Matrigel matrix for one hour
[4] = test system: 22RV1 prostate tumor lung metastases; assay: Inhibition of prostate tumor-derived lung metastases formation
Source text: During the experiment, the mice were monitored continuously for clinical signs of toxicity.

[5] = test system: MDA-MB-231 breast tumor metastases in lymph nodes and lungs; assay: Inhibition of formation of lung and lymph node metastases derived from breast cancer; type: in vivo, SCID/NCr mice
Source text: Monitoring of solid metastases derived for breast tumor was done by in vivo fluorescence using IVIS as described above in (iii). At the end of the treatment (day 38), the mice were killed, and the lungs and lymph nodes were removed and monitored for fluorescence of metastases derived from the breast cancer. For metastases quantification, the lungs and right lymph nodes were excised and fixed in 4% buffered formaldehyde. Paraffin-embedded 5-μm sections were stained with H&E. The percentage of metastatic cell area of total section area was calculated using the Image-Pro plus 4.1 software. The dissected lungs and lymph nodes were analyzed by histology. […] Metastasis quantification was done according to areas from three different sections of each organ (P<0.005).

## CC(C)C[C@H](NC(=O)[C@H](CC(C)C)NC(=O)[C@@H](CCCCN)NC(=O)[C@H](CC(C)C)NC(=O)[C@H](CC(C)C)NC(=O)[C@H](Cc1c[nH]cn1)NC(=O)[C@@H](CCCCN)NC(=O)[C@@H](CC(C)C)NC(=O)[C@H](CC(C)C)NC(=O)[C@@H](CCCCN)NC(=O)[C@H](Cc1c[nH]cn1)NC(=O)[C@H](CC(C)C)NC(=O)[C@@H](CC(C)C)NC(=O)[C@H](CCCCN)NC(=O)[C@@H](N)CC(C)C)C(N)=O [Peptide 13] (H-LK[dL]LH[dK]L[dL][dK]HLL[dK]LL-NH2)
[1]
  Lethal Concentration (LC50): 25 µg/mL
[2]; CL1 xenograft, 1 mg/kg intratumorally, 9 doses
  tumor weight: significant reduction
[2]; prostate cancer xenografts (CL1, 22RV1)
  body weight of the animals compared with vehicle-treated control group: increase
[3]
  activity preserved upon interaction with the Matrigel matrix: ~50%
[4]; mouse, in vivo
  body weight compared with vehicle treated control group: significant increase
[4]; systemic administration, vs untreated controls
  lung metastases: entirely abolished
[4]; throughout the assay period
  clinical signs of toxicity (condition of animals): good condition
[5]; systemic administration
  lymph node metastasis fluorescence intensity: significant reduction
[5]; vs control untreated mice, P<0.005
  histology of lungs and lymph nodes: population by cancer cells: much less densely populated
